Like-named read-outs stand apart in the source and are kept apart here. Peptide text beside a SMILES is read from it.
What was measured:
p300 [1] = target: p300 (Homo sapiens, UniProt Q09472); assay: Affinity for p300 by isothermal titration calorimetry; assay type: binding; conditions: for Kd: isothermal titration calorimetry, p300, read-out: Kd (ITC)
Text: Helix αA of HIF-1α C-TAD, shown in FIG. 1A and FIG. 1C, is critical for the interaction between the CH1 domain and HIF-1α, because mutation of its residues or hydroxylation of Asn803 is known to disrupt this complex and inhibit HIF-1α mediated transcription (Freedman et al., “Structural Basis for Recruitment of CBP/p300 by Hypoxia-inducible Factor-1α,” Proc. Nat'l Acad. Sci. USA 99:5367-72 (2002); Dames et al., “Structural Basis for Hif-1α/CBP Recognition in the Cellular Hypoxic Response,” Proc. Nat'1 Acad. Sci. USA 99:5271-6 (2002). Development of HBS helices as potential inhibitors of VEGF transcription was begun by mimicking the aA helix region of HIF-1. This helix consists of eight residues, […] (SEQ ID NO: 111), and features three residues, Asp-Cys-Glu, critical for binding with p300/CBP. Several linear peptides and their HBS α-helix analogs were designed to gauge the potential of these molecules to inhibit VEGF transcription in cell culture. Each unconstrained peptide and HBS helix was synthesized using the procedures described in (Dimartino et al., “Solid-phase Synthesis of Hydrogen-bond Surrogate-derived α-Helices,” Org. Lett. 7:2389-92 (2005); Chapman & Arora, “Optimized Synthesis of Hydrogen-bond Surrogate Helices: Surprising Effects of Microwave Heating on the Activity of Grubbs Catalysts,” Org. Lett. 8:5825-8 (2006)). The percent helicity of each peptide was determined using circular dichroism spectroscopy in 10 mM phosphate buffered saline as described in (Wang et al., “Evaluation of Biologically Relevant Short α-Helices Stabilized by a Main-chain Hydrogen-bond Surrogate,” J. Am. Chem. Soc. 128:9248-56 (2006)). The affinity of each peptide for p300 was measured by isothermal titration calorimetry analysis (Wiseman et al., “Rapid Measurement of Binding Constants and Heats of Binding Using a New Titration calorimeter,” Anal. Biochem. 179:131-7 (1989); Freire et al., “Isothermal Titration calorimetry,” Anal. Chem. 62:A950-A959 (1990); Chervenak & Toone, “Calorimetric Analysis of the Binding of Lectins with Overlapping Carhohydrate-binding Ligand Specificities,” Biochemistry 34:5685-95 (1995); Aki et al., “Competitive Binding of Drugs to the Multiple Binding Sites on Human Serum Albumin. A calorimetric Study,” J Thermal Anal. calorim. 57:36170 (1999); Graziano et al., “Linkage of Proton Binding to the Thermal Unfolding of Sso7d from the Hyperthermophilic Archaebacterium Sulfolobus solfataricus,” Int'l J. Biol. Macromolecules 26:45-53 (1999); Pluschke & Mutz, “Use of Isothermal Titration calorimetry in the Development of Molecularly Defined Vaccines,” J Thermal Anal. calorim. 57:377-88 (1999); Corbell et al., “A Comparison of Biological and calorimetric Analyses of Multivalent Glycodendrimer Ligands for Concanavalin A,” Tetrahedron-Asymmetry 11:95-111 (2000)). The ability of each peptide to downregulate VEGF transcription in cell culture was evaluated by […] quantitative RT-PCR, as described above. The cytotoxicity of each peptide was determined by monitoring cellular growth and population doubling in the presence of individual peptides at 1μM concentration.

MDA-MB-231-HRE-Luc cells = assay type: cell-based
Protocol: MDA-MB-231-HRE-Luc cells were maintained in high glucose Dulbecco's Modified Eagle's Medium (“DMEM”) supplemented with 10% fetal bovine serum and 0.4 g/L Geneticin (G418 sulfate, RPI Corporation). Cells were plated in 24-well dishes (BD Falcon) at a density of […] using 1 mL of a 6.5×10^4 cell/mL suspension. […] Cells were incubated for 6 hours at 37° C. in a humidified atmosphere with 5% CO2. Hypoxia was induced by adding desferoxamine mesylate (DFO, Sigma) to a final concentration of 300 μM, and cells were incubated for an additional 18 hours. Whole cell lysates were isolated by washing the cells twice with ice cold PBS and then adding 150 μL of Cell Culture Lysis Reagent (“CCLR,” Promega). Lysate was collected, centrifuged at 13,000 rpm at 4° C., aliquoted, and stored at −80° C. Luciferase assays were conducted according to the manufacturer's instructions (Promega) using a Turner TD-20e Luminometer. Relative light intensity measurements were normalized by performing a Bradford assay to determine the protein content of the lysate used in the luciferase assay. Briefly, 50 μL of cell lysate/luciferase assay reagent mix was added to 200 μL of Bradford reagent and 750 μL of Millipore water in a 1.5 mL cuvette. Protein standards were created in the range of 1 μg/mL to 10 μg/mL with the appropriate amount of a 1 mg/mL BSA solution. Absorbance was measured at 595 nm using a DU-800 spectrophotometer. The experiments were carried out in triplicate with the error bars calculated as standard error of the mean.

[2] = test system: HIF-1α C-TAD and p300/CBP; conditions: literature (Kung et al. 2004); cited from earlier work
experimental animals = conditions: cited from earlier work
[3] = Percent helicity by circular dichroism spectroscopy; assay type: physicochemical; conditions: 10 mM phosphate buffered saline
Text: Helix αA of HIF-1α C-TAD, shown in FIG. 1A and FIG. 1C, is critical for the interaction between the CH1 domain and HIF-1α, because mutation of its residues or hydroxylation of Asn803 is known to disrupt this complex and inhibit HIF-1α mediated transcription (Freedman et al., “Structural Basis for Recruitment of CBP/p300 by Hypoxia-inducible Factor-1α,” Proc. Nat'l Acad. Sci. USA 99:5367-72 (2002); Dames et al., “Structural Basis for Hif-1α/CBP Recognition in the Cellular Hypoxic Response,” Proc. Nat'1 Acad. Sci. USA 99:5271-6 (2002). Development of HBS helices as potential inhibitors of VEGF transcription was begun by mimicking the aA helix region of HIF-1. This helix consists of eight residues, […] (SEQ ID NO: 111), and features three residues, Asp-Cys-Glu, critical for binding with p300/CBP. Several linear peptides and their HBS α-helix analogs were designed to gauge the potential of these molecules to inhibit VEGF transcription in cell culture. Each unconstrained peptide and HBS helix was synthesized using the procedures described in (Dimartino et al., “Solid-phase Synthesis of Hydrogen-bond Surrogate-derived α-Helices,” Org. Lett. 7:2389-92 (2005); Chapman & Arora, “Optimized Synthesis of Hydrogen-bond Surrogate Helices: Surprising Effects of Microwave Heating on the Activity of Grubbs Catalysts,” Org. Lett. 8:5825-8 (2006)). The percent helicity of each peptide was determined using circular dichroism spectroscopy in 10 mM phosphate buffered saline as described in (Wang et al., “Evaluation of Biologically Relevant Short α-Helices Stabilized by a Main-chain Hydrogen-bond Surrogate,” J. Am. Chem. Soc. 128:9248-56 (2006)). The affinity of each peptide for p300 was measured by isothermal titration calorimetry analysis (Wiseman et al., “Rapid Measurement of Binding Constants and Heats of Binding Using a New Titration calorimeter,” Anal. Biochem. 179:131-7 (1989); Freire et al., “Isothermal Titration calorimetry,” Anal. Chem. 62:A950-A959 (1990); Chervenak & Toone, “Calorimetric Analysis of the Binding of Lectins with Overlapping Carhohydrate-binding Ligand Specificities,” Biochemistry 34:5685-95 (1995); Aki et al., “Competitive Binding of Drugs to the Multiple Binding Sites on Human Serum Albumin. A calorimetric Study,” J Thermal Anal. calorim. […] The ability of each peptide to downregulate VEGF transcription in cell culture was evaluated by […] quantitative RT-PCR, as described above. The cytotoxicity of each peptide was determined by monitoring cellular growth and population doubling in the presence of individual peptides at 1μM concentration.

circular dichroism = conditions: 10 mM phosphate buffered saline (par. 0128, each peptide; pH given only for 22 and 25, Fig 6B), pH 7.4, ns °C
p300 [4] = target: T1, p300 (UniProt Q09472 323-423, limits assumed); assay: isothermal titration calorimetry
T1 construct: also called p300/CBP
T1 sequence (Q09472 323-423 limits assumed): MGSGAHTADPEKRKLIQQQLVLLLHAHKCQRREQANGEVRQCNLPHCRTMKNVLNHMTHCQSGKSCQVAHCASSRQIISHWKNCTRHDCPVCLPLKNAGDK

Molecule | Kd (p300 [1]) [nM] | Inhibition of VEGF transcription in cell culture (in words) (MDA-MB-231-HRE-Luc cells) | helicity (circular dichroism) [%] | Kd (p300 [4]) [nM] | also measured
CN1C(=O)[C@]2(Cc3cn([C@]45C[C@@]67SS[C@@](CO)(C(=O)N6[C@H]4Nc4ccccc45)N(C)C7=O)c4ccccc34)SS[C@@]1(CO)C(=O)N2C [Compound 26, chetomin, reference compound] | 120 | more potent inhibitor of VEGF transcription than HBS helix 22 | – | – | % Transcription inhibition in cell culture (MDA-MB-231-HRE-Luc cells; 200 nM chetomin, qRT-PCR or luciferase, method not given): 50 ± 5%; Inhibition of interaction between HIF-1α C-TAD and p300/CBP [2]: inhibit the interaction between HIF-1α C-TAD and p300/CBP; Side effects in experimental animals (experimental animals): induced coagulative necrosis, anemia, and leukocytosis
CC(=O)N[C@H](C(=O)N[C@@H](CO)C(=O)N[C@@H](Cc1ccc(O)cc1)C(=O)N[C@@H](CC(=O)O)C(=O)N[C@@H](CS)C(=O)N[C@@H](CCC(=O)O)C(=O)N[C@H](C(=O)N[C@@H](CC(N)=O)C(=O)N[C@@H](C)C(N)=O)C(C)C)[C@@H](C)O [Compound 23] (Ac-TSYDCEVNA-NH2) | – | failed to inhibit VEGF transcription in cell culture | 14 | – | % Helicity [3]: 14%; Affinity for p300 (in words) (p300 [1]; ITC): bound p300 with significant affinities; % Transcription inhibition in cell culture (Luc) (MDA-MB-231-HRE-Luc cells; luciferase assay, 1 μM peptide): 10 ± 5%
CC(C)[C@H](NC(=O)[C@H](CCC(=O)O)NC(=O)[C@H](CS)NC(=O)[C@H](CC(=O)O)NC(=O)[C@H](Cc1ccc(O)cc1)N1CC=CCCC(=O)N[C@@H]([C@@H](C)O)C(=O)N[C@@H](C)C1=O)C(=O)N[C@@H](CC(N)=O)C(=O)N[C@@H](C)C(N)=O [Compound 20] | 540 | – | 44 | – | % Transcription inhibition in cell culture (Luc) (MDA-MB-231-HRE-Luc cells; 1000 nM): 0 ± 5 (Luc) %
Ac-TSYDCEVNA-NH2 (also called linear peptide 23; unconstrained peptide 23) [peptide 23 (AcTSYDCEVNA-NH2)] | – | – | – | 1350 | –
Ac-TAYDCEVNA-NH2 (Unconstrained analog of HBS peptide 20 (alanine in place of serine-797); also called linear peptide 24; unconstrained peptide 24) [peptide 24 (AcTAYDCEVNA-NH2)] | – | – | – | 1220 | –
Ac-GTAADCEYNAR-NH2 (Unconstrained analog of HBS helix 22; also called linear control peptide 25; control peptide 25) [peptide 25 (AcGTAADCEYNAR-NH2)] | – | – | – | 825 | –

Reference: patent publication US9399666B2, “Inhibiting interaction between the HIF-1ALPHA and p300/CBP with hydrogen bond surrogate-based helices” (New York University, priority 2008, dated 2016)
